Columns and labels:
[1] = system: E. coli MG1655 ΔtolC; experiment: MIC; type: cell-based; details: E. coli MG1655 WT vs MG1655 ΔtolC
Protocol: MICs of compounds in each strain were determined in cation-adjusted Mueller-Hinton II (MHII) broth or MHII agar according to the Clinical and Laboratory Standards Institute protocol (CLSI 2006). To measure the effect of protein binding on activity, MIC assays were performed in the presence of 50% heat-inactivated human serum. The serum killing assay was performed as described previously ([43]). FOR assays and growth on plates containing G0790 were always performed on MHII agarose plates.

[2] = system: E. coli CFT073 imp4213; experiment: Frequency of resistance (FOR); type: cell-based; details: 4× MIC, MHII agarose
Protocol: Frequencies of resistance (FORs) of G0790 were determined for E. coli CFT073, E. cloacae (ATCC 13047), and K. pneumoniae (ATCC 700603) as previously published ([70]). To determine the FOR, 3 to 4 colonies of the strain to be tested were picked from a fresh plate and diluted to an optical density at 600 nm (OD600) of 0.00001 in 1 ml of cation-adjusted MHBII. Ten independent 5-ml cultures in MHBII were prepared by inoculating 5 μl (approximately 1 × 10^3 CFU) and incubated at 37°C for 18 h. The bacteria were pelleted by centrifugation at 4000 × g at 4°C for 15 min and resuspended in 0.5 ml fresh MHBII. Two hundred fifty microliters of the bacterial suspension was plated evenly on MHII agarose plates containing globomycin or G0790 at a final concentration of 4× and 8× MIC. In parallel, CFU from each independent culture was measured by spotting 10-fold serial dilutions on MHII agar plates and incubated at 37°C for 18 h. Colonies were counted at days 1, 2, and 3 postinoculation. FOR was calculated as the ratio of the total number of resistant colonies relative to the total CFU plated. For strains that had no resistant colonies growing on plates, the p0 method was used to calculate the FOR (FOR = m/total CFU plated, where m = −ln p0 and p0 is the proportion of cultures with no mutants; 0.7 ≥ p0 ≥ 0.1), as described previously ([71]). Colonies were picked and resuspended in 30 μl MHBII broth medium, and 10 μl was plated on an MHII agar plate containing G0790 to be used to determine the MIC. Of the remaining 20 μl, half was used to inoculate 1.5 ml MHBII broth medium containing G0790 and grown at 37°C for 18 h to generate cell lysates for Western blot analysis, isolate genomic DNA (gDNA) for whole-genome sequencing, and for frozen glycerol stocks.

[3] = system: E. coli CFT073; experiment: Bactericidal activity, CFU over time; type: cell-based; details: G0790 at 2× MIC, two independent experiments in duplicates
[4] = system: Lpp; details: in words; cited from earlier work
Text: We confirmed that the increase in potency against WT bacterial strains was specific to LspA by using multiple parallel approaches. […] Third, like GBM, G0790 is bactericidal, a ...

[5] = system: LspA; details: cited from earlier work; for LspA inhibition, mode: in words
Text: Bacterial lipoprotein biosynthesis is an attractive target for novel antibiotic drug discovery, as bacterial lipoproteins play critical roles in adhesion, nutrient uptake, antibiotic resistance, virulence, invasion, and immune evasion ([14]). Lipoprotein biosynthesis in Gram-negative bacteria is mediated by three essential inner membrane-localized enzymes ([14]), which work sequentially to generate the mature triacylated lipoproteins. The second enzyme in the pathway, prolipoprotein signal peptidase (LspA), is an aspartyl endopeptidase which cleaves off the signal peptide N-terminal to a conse ... || Our efforts to identify potent GBM analogs were driven by whole bacterial cell activity assays due to the low translatability of in vitro biochemical activity ([34], [35]).

[6] = system: wild-type (WT) Gram-negative bacteria; details: in words; cited from earlier work
Text: Therefore, with the goal of increasing GBM whole-cell potency through medicinal chemistry optimization, we identified G0790 as an analog with increased growth inhibitory activity against multiple Gram-negative bacterial species ([36]). G0790 contains (S)-2,3-diaminopropionic acid (Dap), cyclohexylglycine (Chg), and N-methyl ...

[7] = system: lspA-overexpressing or lpp-deleted bacteria; details: in words, cited from earlier work

Structure (SMILES) | WT/tolC MIC shift [1] | FOR (frequency of resistance) [2] | Bactericidal activity [3] | Accumulation of peptidoglycan-associated Lpp in the inner membrane [4] | LspA inhibition, mode [5] | Ki ([5]; previously described by Dev et al.) | Growth inhibition of WT Gram-negative bacteria [6] | Effect of plasmid-based lspA overexpression [7] | Effect of complete Lpp deletion ([7]; previous finding, ref as printed: none in abstract)
CCCCCC[C@H]1OC(=O)CNC(=O)[C@H]([C@H](C)O)NC(=O)[C@H](CO)NC(=O)[C@H]([C@H](C)CC)NC(=O)[C@H](CC(C)C)N(C)C(=O)[C@@H]1C [GBM, globomycin] | ~128 fold | 1.4 × 10^−9 | bactericidal | accumulation of the peptidoglycan-associated form of Lpp in the inner membrane | inhibit LspA function by targeting the catalytic dyad aspartic acid residues | 0.036 µM | weak growth inhibition | confer resistance | leads to globomycin resistance
CCCC1OC(=O)C(C)CC(C)CCCCC(=O)CCCC(CC)/C=C/C=C(\COC)CCC(O)C(O)CC(O)CNC1=O (centres unmarked) [myxovirescin] | – | – | – | – | inhibit LspA function by targeting the catalytic dyad aspartic acid residues | – | – | confer resistance | –
